Patent US10562912B2 (C&C Research Laboratories, priority 2013, dated 2020)

Legend:
Format in all cases: cell-based
MDA-MB-231 = test: Cell growth inhibition assay, breast cancer cell line MDA-MB-231; details: Homo sapiens; MDA-MB-231 breast cancer cell line, 5,000 cells/well
Description: The inhibitory effects of the compounds of the present invention against the growth of cancer cells were evaluated as shown below. The cancer cell lines including stomach cancer cell line (AGS), breast cancer cell lines (MDA-MB-231, MDA-MB-468, and BT-549), prostate cancer cell lines (LNCaP and DU-145), colon cancer cell line (HCT116), ovarian cancer cell line (SW626), liver cancer cell line (Hep3B), kidney cancer cell line (ACHN), lung cancer cell line (NCI-H23) and blood cancer cell lines (HEL92.1.7 and U266) were cultured under the protocol provided by each supplier. A medium supplemented with 10 ng/mL of IL-6 was used for LNCaP, a prostate cancer cell line, when treated with a drug. Each type of cells to be used in experiments were sub-cultured in a 96-well plate by counting the exact number of cells using Tali™ Image-based Cytometer (Life Technologies). In a 96-well plate, AGS, HCT116, and DU-145 were employed with 3,000 cells/well; NCI-H23, SW626, Hep3B, ACHN, BT-549, MDA-MB-231, HEL92.1.7, and U266 were employed with 5,000 cells/well; and LNCaP and MDA-MB-468 were employed with 10,000 cells/well. The cells were treated with the compounds listed in Examples which were diluted in various concentrations. Upon completion of the compounds treatment, AGS, HCT116, SW626, DU145, NCI-H23, Hep3B, ACHN, BT-549, LNCaP, HEL92.1.7, and U266 cells were cultured at 37° C. under 5% CO2 for from 72 to 96 hours, and MDA-MB-231 and MDA-MB-468 cells were cultured at 37° C. in air for from 72 to 96 hours. Subsequently, the cells were observed under microscope and drug precipitation and particular findings were investigated and recorded. And then, the 96-well plate was placed at room temperature for 30 minutes, added with 20 μL/well of CellTiter-Glo solution (Cat No. G7573, Promega) and shaken for 10 minutes, followed by being subjected to the measurement using PHERAstar™ microplate reader (BMG LABTECH) according to the supplier's general luminometer protocol. Wells where only culture liquid added without cell plating were used as a negative control, whereas wells where culture liquid containing 0.1% DMSO instead of the compounds listed in Examples were used as a positive control.

STAT3 = biological target: T1, STAT3 (Homo sapiens, UniProt P40763); test: STAT3 reporter gene assay (luciferase), LNCaP stable cell line (pSTAT3-TA-luc), IL-6 stimulation
T1 construct: plasmid pSTAT3-TA-luc), which contains a stably operating STAT3 promoter; endogenous in cells
How it was run: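 Cytotoxicity was run on a duplicate plate with CellTiter-Glo, while the other plate gave luciferase read-outs from lysed LNCaP pSTAT3-TA-luc reporter cells. Cells were treated with graded compound concentrations plus IL-6 (10 ng/mL final) for 24–48 h in 3% DCC-FBS medium. Unstimulated and stimulated wells served as negative and positive controls.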

LNCaP = test: Cell growth inhibition assay, prostate cancer cell line LNCaP (medium with 10 ng/mL IL-6); details: Homo sapiens, medium supplemented with 10 ng/mL of IL-6, 10,000 cells/well
DU-145 = test: Cell growth inhibition assay, prostate cancer cell line DU-145; details: Homo sapiens, DU-145 prostate cancer cell line
How it was run: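 DU-145 and HCT116 cells were plated at 3,000 cells/well and SW626 at 5,000 cells/well, then treated with serially diluted compounds. After 72 to 96 hours at 37° C. under 5% CO2, viability was read by CellTiter-Glo luminescence against cell-free medium wells and 0.1% DMSO wells.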

T1 sequence (P40763 whole entry): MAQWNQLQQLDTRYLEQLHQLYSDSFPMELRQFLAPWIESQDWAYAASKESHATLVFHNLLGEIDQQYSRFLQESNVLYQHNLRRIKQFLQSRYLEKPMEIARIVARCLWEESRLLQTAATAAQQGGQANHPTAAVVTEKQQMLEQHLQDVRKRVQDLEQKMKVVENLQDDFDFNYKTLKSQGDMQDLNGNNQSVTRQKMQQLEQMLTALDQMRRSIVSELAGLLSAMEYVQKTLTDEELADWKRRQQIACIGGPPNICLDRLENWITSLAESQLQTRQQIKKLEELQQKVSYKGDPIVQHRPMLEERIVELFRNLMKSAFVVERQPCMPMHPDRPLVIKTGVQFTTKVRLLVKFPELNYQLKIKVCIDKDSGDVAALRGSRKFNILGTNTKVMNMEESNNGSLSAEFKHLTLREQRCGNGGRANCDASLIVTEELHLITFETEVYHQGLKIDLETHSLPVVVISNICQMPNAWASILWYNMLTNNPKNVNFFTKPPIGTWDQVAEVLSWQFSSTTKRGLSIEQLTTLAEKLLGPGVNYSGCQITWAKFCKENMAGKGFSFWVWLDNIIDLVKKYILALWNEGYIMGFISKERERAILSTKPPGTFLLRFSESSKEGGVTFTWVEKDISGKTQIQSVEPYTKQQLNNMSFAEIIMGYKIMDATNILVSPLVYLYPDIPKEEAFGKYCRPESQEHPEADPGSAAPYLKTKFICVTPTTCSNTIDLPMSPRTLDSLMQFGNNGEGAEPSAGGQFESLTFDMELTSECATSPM

Structure (SMILES) | IC50 (MDA-MB-231) [µM] | IC50 (STAT3) [µM] | IC50 (LNCaP) [µM] | IC50 (DU-145) [µM]
CC(C)(c1ccc(F)cc1)c1cccc(NC(=O)c2cc3ccc(NS(C)(=O)=O)cc3[nH]2)c1 [Example 1, N-(3-(2-(4-fluorophenyl)propan-2-yl)phenyl)-6-(methylsulfonamido)-1H-indole-2-carboxamide] | 0.23 | 0.19 | 2.5 | –
CC(C)(c1ccccc1)c1cccc(NC(=O)c2cc3ccc(NS(C)(=O)=O)cc3[nH]2)c1 [Example 2, 6-(methylsulfonamido)-N-(3-(2-phenylpropan-2-yl)phenyl)-1H-indole-2-carboxamide] | 0.14 | 0.2 | 5.3 | –
COc1cc2cc(C(=O)Nc3cccc(C(C)(C)c4ccc(F)cc4)c3)[nH]c2cc1NS(C)(=O)=O [Example 3, N-(3-(2-(4-fluorophenyl)propan-2-yl)phenyl)-5-methoxy-6-(methylsulfonamido)-1H-indole-2-carboxamide] | 0.09 | 0.22 | 1.1 | –
COc1cc(NC(=O)c2cc3ccc(NS(C)(=O)=O)cc3[nH]2)cc(C(C)(C)c2cccc(OC(F)(F)F)c2)c1 [Example 4, N-(3-methoxy-5-(2-(3-(trifluoromethoxy)phenyl)propan-2-yl)phenyl)-6-(methylsulfonamido)-1H-indole-2-carboxamide] | 0.052 | 0.34 | 0.82 | –
CNS(=O)(=O)Nc1ccc2cc(C(=O)Nc3cccc(C(C)(C)c4ccc(F)cc4)c3)[nH]c2c1 [Example 5, N-(3-(2-(4-fluorophenyl)propan-2-yl)phenyl)-6-((N-methylsulfamoyl)amino)-1H-indole-2-carboxamide] | 1.2 | 1.2 | 4.7 | –
CC(C)(c1ccc(F)cc1)c1cccc(NC(=O)c2cc3ccc(S(C)(=O)=O)cc3[nH]2)c1 [Example 6, N-(3-(2-(4-fluorophenyl)propan-2-yl)phenyl)-6-(methylsulfonyl)-1H-indole-2-carboxamide] | > 10 | > 10 | > 10 | –
CC(C)(c1cccc(NC(=O)c2cc3ccc(NS(C)(=O)=O)cc3[nH]2)c1)c1ccccc1F [Example 7, N-(3-(2-(2-fluorophenyl)propan-2-yl)phenyl)-6-(methylsulfonamido)-1H-indole-2-carboxamide] | 0.35 | 0.31 | 2.4 | –
CC(C)(c1cccc(NC(=O)c2cc3ccc(NS(C)(=O)=O)cc3[nH]2)c1)c1cccc(OC(F)(F)F)c1 [Example 8, 6-(methylsulfonamido)-N-(3-(2-(3-(trifluoromethoxy)phenyl)propan-2-yl)phenyl)-1H-indole-2-carboxamide] | 0.018 | 0.12 | 0.87 | –
CS(=O)(=O)Nc1cc2cc(C(=O)Nc3cc(Cl)cc(Oc4ccc(F)c(Cl)c4)c3)sc2cc1Cl [Example 476, 6-chloro-N-(3-chloro-5-(3-chloro-4-fluorophenoxy)phenyl)-5-(methylsulfonamido)benzo[b]thiophene-2-carboxamide] | – | 0.021 | 0.022 | 0.005
CS(=O)(=O)Nc1cc2cc(C(=O)Nc3cc(Cl)cc(Oc4ccc(Cl)c(F)c4)c3)sc2cc1Cl [Example 477, 6-chloro-N-(3-chloro-5-(4-chloro-3-fluorophenoxy)phenyl)-5-(methylsulfonamido)benzo[b]thiophene-2-carboxamide] | – | 0.025 | 0.013 | 0.01

Results, then the compound that gave them:

IC50 (MDA-MB-231) [µM] | IC50 (STAT3) [µM] | IC50 (LNCaP) [µM] | IC50 (DU-145) [µM] | Structure (SMILES)
– | 0.022 | 0.018 | 0.012 | CS(=O)(=O)Nc1cc2cc(C(=O)Nc3cc(Cl)cc(Oc4ccc(F)cc4)c3)sc2cc1Cl [Example 478, 6-chloro-N-(3-chloro-5-(4-fluorophenoxy)phenyl)-5-(methylsulfonamido)benzo[b]thiophene-2-carboxamide]
– | 0.014 | 0.008 | 0.006 | CS(=O)(=O)Nc1cc2cc(C(=O)Nc3cc(Cl)cc(Oc4cccc(OC(F)(F)F)c4)c3)sc2cc1Cl [Example 479, 6-chloro-N-(3-chloro-5-(3-(trifluoromethoxy)phenoxy)phenyl)-5-(methylsulfonamido)benzo[b]thiophene-2-carboxamide]
– | 0.019 | 0.01 | 0.007 | CS(=O)(=O)Nc1cc2cc(C(=O)Nc3cc(Cl)cc(Oc4ccc(OC(F)(F)F)cc4)c3)sc2cc1Cl [Example 480, 6-chloro-N-(3-chloro-5-(4-(trifluoromethoxy)phenoxy)phenyl)-5-(methylsulfonamido)benzo[b]thiophene-2-carboxamide]
– | 0.015 | 0.036 | 0.008 | CS(=O)(=O)Nc1cc2cc(C(=O)Nc3cc(Cl)cc(Oc4ccc(F)c(F)c4)c3)sc2cc1Cl [Example 481, 6-chloro-N-(3-chloro-5-(3,4-difluorophenoxy)phenyl)-5-(methylsulfonamido)benzo[b]thiophene-2-carboxamide]
– | 0.016 | 0.013 | 0.005 | CS(=O)(=O)Nc1cc2cc(C(=O)Nc3cc(Cl)cc(Oc4ccc(C(F)(F)F)cc4)c3)sc2cc1Cl [Example 482, 6-chloro-N-(3-chloro-5-(4-(trifluoromethyl)phenoxy)phenyl)-5-(methylsulfonamido)benzo[b]thiophene-2-carboxamide]
– | 0.014 | 0.02 | 0.01 | CS(=O)(=O)Nc1cc2cc(C(=O)Nc3cc(Cl)cc(Oc4cc(F)cc(Cl)c4)c3)sc2cc1Cl [Example 483, 6-chloro-N-(3-chloro-5-(3-chloro-5-fluorophenoxy)phenyl)-5-(methylsulfonamido)benzo[b]thiophene-2-carboxamide]
– | 0.021 | 0.037 | 0.021 | COc1cc(F)cc(Oc2cc(Cl)cc(NC(=O)c3cc4cc(NS(C)(=O)=O)c(Cl)cc4s3)c2)c1 [Example 484, 6-chloro-N-(3-chloro-5-(3-fluoro-5-methoxyphenoxy)phenyl)-5-(methylsulfonamido)benzo[b]thiophene-2-carboxamide]
– | 0.129 | > 1.1 | 0.38 | CS(=O)(=O)Nc1cc2sc(C(=O)Nc3cc(Cl)cc(Oc4ccc(Cl)cc4)c3)cc2cc1Cl [Example 485, 5-chloro-N-(3-chloro-5-(4-chlorophenoxy)phenyl)-6-(methylsulfonamido)benzo[b]thiophene-2-carboxamide]
– | 0.11 | 0.083 | 0.048 | CS(=O)(=O)Nc1cc2cc(C(=O)Nc3cc(Cl)cc(OC4CCCCC4)c3)sc2cc1Cl [Example 486, 6-chloro-N-(3-chloro-5-(cyclohexyloxy)phenyl)-5-(methylsulfonamido)benzo[b]thiophene-2-carboxamide]
– | 0.059 | 0.036 | 0.025 | Cc1ccc(Oc2cc(Cl)cc(NC(=O)c3cc4cc(NS(C)(=O)=O)c(Cl)cc4s3)c2)s1 [Example 487, 6-chloro-N-(3-chloro-5-((5-methylthiophen-2-yl)oxy)phenyl)-5-(methylsulfonamido)benzo[b]thiophene-2-carboxamide]
– | 0.35 | 2.5 | 1.1 | Cc1cc(OC(C)C)cc(C(C)(C)c2cc(Cl)cc(NC(=O)c3cc4c(Br)c(NS(C)(=O)=O)ccc4s3)c2)c1 [Example 488, 4-bromo-N-(3-chloro-5-(2-(3-isopropoxy-5-methylphenyl)propan-2-yl)phenyl)-5-(methylsulfonamido)benzo[b]thiophene-2-carboxamide]
– | 0.11 | 0.11 | 0.031 | CS(=O)(=O)Nc1ccc2sc(C(=O)Nc3cc(Cl)nc(Oc4ccc(Cl)cc4)c3)cc2c1 [Example 489, N-(2-chloro-6-(4-chlorophenoxy)pyridin-4-yl)-5-(methylsulfonamido)benzo[b]thiophene-2-carboxamide]
